# What was measured:
# [1] = Plasma levels of Compound 1 over 24 hours after 14 days of suspension administration in healthy volunteers; assay type: in vivo; conditions: human, oral; for concentration at 0 h: 0 h post-dose; for concentration at 0.5 h: 0.5 h post-dose; for concentration at 1 h: 1 h post-dose; for concentration at 1.5 h: 1.5 h post-dose; for concentration at 2 h: 2 h post-dose; for concentration at 2.5 h: 2.5 h post-dose; for concentration at 3 h: 3 h post-dose; for concentration at 4 h: 4 h post-dose; for concentration at 6 h: 6 h post-dose; for concentration at 8 h: 8 h post-dose; for concentration at 8.5 h: 8.5 h post-dose; for concentration at 9 h: 9 h post-dose; for concentration at 9.5 h: 9.5 h post-dose; for concentration at 10 h: 10 h post-dose; for concentration at 10.5 h: 10.5 h post-dose; for concentration at 11.5 h: 11.5 h post-dose; for concentration at 12 h: 12 h post-dose; for concentration at 14 h: 14 h post-dose; for concentration at 16 h: 16 h post-dose; for concentration at 24 h: 24 h post-dose
# Procedure: FIG. 2 is an assessment of the pharmacokinetics of Compound 1 in healthy volunteers over 24 hours after 14 days of administration of a suspension of the compound at three different doses (25 or 75 mg twice daily [BID] or 150 mg once daily [QD]).
# A suspension formulation of varying doses of Compound 1 (25 or 75 mg twice daily [BID] or 150 mg once daily [QD]) was administered to healthy volunteers. Plasma levels of Compound 1 over 24 hours after 14 days of administration were measured (FIG. 2). Post-dose plasma levels are recited in Table 14.
# SLC6A19 = target: T1, SLC6A19 (Homo sapiens, UniProt Q695T7); assay: 24 h excretion of phenylalanine and Hartnup amino acids at Day 1, 7 and 14 of suspension administration in healthy volunteers; assay type: in vivo; conditions: for Hartnup Amino Acids excretion over 24 hours, Mean / Phenylalanine excretion over 24 hours, Mean: in mg
# T1 construct: SCL6A19 is located in the proximal tubule of the kidney and is responsible for reabsorption of amino acids back into the blood; from tissue; host or cells: Kidney proximal tubule of healthy volunteers (in vivo, endogenous)
# T1 sequence (Q695T7 1-634): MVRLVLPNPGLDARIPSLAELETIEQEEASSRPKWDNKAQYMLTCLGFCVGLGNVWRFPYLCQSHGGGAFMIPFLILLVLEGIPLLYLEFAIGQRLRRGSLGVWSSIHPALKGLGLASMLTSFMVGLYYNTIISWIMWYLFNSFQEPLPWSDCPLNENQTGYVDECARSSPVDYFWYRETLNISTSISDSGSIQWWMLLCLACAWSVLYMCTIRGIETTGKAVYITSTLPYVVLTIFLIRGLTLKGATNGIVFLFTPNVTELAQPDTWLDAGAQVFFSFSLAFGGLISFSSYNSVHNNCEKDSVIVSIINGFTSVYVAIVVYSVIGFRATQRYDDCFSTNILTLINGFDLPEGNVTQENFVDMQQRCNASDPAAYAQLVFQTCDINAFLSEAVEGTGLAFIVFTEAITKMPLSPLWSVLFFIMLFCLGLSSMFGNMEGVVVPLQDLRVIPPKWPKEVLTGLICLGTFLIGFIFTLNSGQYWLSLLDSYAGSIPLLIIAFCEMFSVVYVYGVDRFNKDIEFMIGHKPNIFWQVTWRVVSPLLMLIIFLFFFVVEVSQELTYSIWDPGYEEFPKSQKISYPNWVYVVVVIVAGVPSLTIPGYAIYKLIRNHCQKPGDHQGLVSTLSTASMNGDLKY
# T1 sequence (Q9HBJ8 15-222 partner): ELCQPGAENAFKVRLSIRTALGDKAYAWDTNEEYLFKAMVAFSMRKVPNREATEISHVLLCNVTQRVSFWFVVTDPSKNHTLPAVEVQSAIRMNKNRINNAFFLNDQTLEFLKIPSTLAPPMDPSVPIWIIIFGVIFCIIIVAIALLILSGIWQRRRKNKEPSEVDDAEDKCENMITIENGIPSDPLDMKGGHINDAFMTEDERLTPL
# Procedure: FIG. 3A is a graph of the pharmacodynamic effect of Compound 1 over time in healthy volunteers by measuring changes in total overall SLC6A19 amino acid substrates (Hartnup amino acids) over 14 days of administration of a suspension of the compound at three different doses (25 or 75 mg twice daily [BID] or 150 mg once daily [QD]).
# FIG. 3B is a graph of the pharmacodynamic effect of Compound 1 over time in healthy volunteers by measuring changes in total 24 hour phenylalanine over 14 days of administration of a suspension of the compound at three different doses (25 or 75 mg twice daily [BID] or 150 mg once daily [QD]).
# A suspension formulation of varying doses of Compound 1 (25 or 75 mg twice daily [BID] or 150 mg once daily [QD]) was administered to healthy volunteers. Changes in excretion of phenylalanine or overall SLC6A19 amino acid substrates (Hartnup amino acids) over 24 hours were measured at Day 1, 7 and 14 (FIGS. 3A and 3B). Urinary excretion of Hartnup amino acids over 24 hours increased from 0.4 g w/ PBO to 4.9 g w/ the compound 75 mg BID (13-fold increase) (Table 15A).
structure (smiles),measurement,setting,value
"NC(=O)N1CCC[C@@H](N(C(=O)NCc2ccc(OC(F)(F)F)cc2F)C2CC2)C1 [Cpd 1, (R)-3-(1-cyclopropyl-3-(2-fluoro-4-(trifluoromethoxy)benzyl)ureido) piperidine-1-carboxamide]",concentration at 0 h,[1]; 25 mg BID suspension,186 ng/mL
same,concentration at 0.5 h,[1]; 25 mg BID suspension,1190 ng/mL
same,concentration at 1 h,[1]; 25 mg BID suspension,1090 ng/mL
same,concentration at 1.5 h,[1]; 25 mg BID suspension,1000 ng/mL
same,concentration at 2 h,[1]; 25 mg BID suspension,922 ng/mL
same,concentration at 2.5 h,[1]; 25 mg BID suspension,899 ng/mL
same,concentration at 3 h,[1]; 25 mg BID suspension,820 ng/mL
same,concentration at 4 h,[1]; 25 mg BID suspension,682 ng/mL
same,concentration at 6 h,[1]; 25 mg BID suspension,442 ng/mL
same,concentration at 8 h,[1]; 25 mg BID suspension,336 ng/mL
same,concentration at 8.5 h,[1]; 25 mg BID suspension,894 ng/mL
same,concentration at 9 h,[1]; 25 mg BID suspension,977 ng/mL
same,concentration at 9.5 h,[1]; 25 mg BID suspension,1010 ng/mL
same,concentration at 10 h,[1]; 25 mg BID suspension,1010 ng/mL
same,concentration at 10.5 h,[1]; 25 mg BID suspension,957 ng/mL
same,concentration at 11.5 h,[1]; 25 mg BID suspension,909 ng/mL
same,concentration at 12 h,[1]; 25 mg BID suspension,748 ng/mL
same,concentration at 14 h,[1]; 25 mg BID suspension,562 ng/mL
same,concentration at 16 h,[1]; 25 mg BID suspension,422 ng/mL
same,concentration at 24 h,[1]; 25 mg BID suspension,193 ng/mL
same,concentration at 0 h,[1]; 75 mg BID suspension,916 ng/mL
same,concentration at 0.5 h,[1]; 75 mg BID suspension,3350 ng/mL
same,concentration at 1 h,[1]; 75 mg BID suspension,3860 ng/mL
same,concentration at 1.5 h,[1]; 75 mg BID suspension,3550 ng/mL
same,concentration at 2 h,[1]; 75 mg BID suspension,3330 ng/mL
same,concentration at 2.5 h,[1]; 75 mg BID suspension,3140 ng/mL
same,concentration at 3 h,[1]; 75 mg BID suspension,2910 ng/mL
same,concentration at 4 h,[1]; 75 mg BID suspension,2610 ng/mL
same,concentration at 6 h,[1]; 75 mg BID suspension,2000 ng/mL
same,concentration at 8 h,[1]; 75 mg BID suspension,1600 ng/mL
same,concentration at 8.5 h,[1]; 75 mg BID suspension,3430 ng/mL
same,concentration at 9 h,[1]; 75 mg BID suspension,3600 ng/mL
same,concentration at 9.5 h,[1]; 75 mg BID suspension,3740 ng/mL
same,concentration at 10 h,[1]; 75 mg BID suspension,3600 ng/mL
same,concentration at 10.5 h,[1]; 75 mg BID suspension,3740 ng/mL
same,concentration at 11.5 h,[1]; 75 mg BID suspension,3200 ng/mL
same,concentration at 12 h,[1]; 75 mg BID suspension,2900 ng/mL
same,concentration at 14 h,[1]; 75 mg BID suspension,2280 ng/mL
same,concentration at 16 h,[1]; 75 mg BID suspension,1850 ng/mL
same,concentration at 24 h,[1]; 75 mg BID suspension,741 ng/mL
same,concentration at 0 h,[1]; 150 mg QD suspension,299 ng/mL
same,concentration at 0.5 h,[1]; 150 mg QD suspension,4230 ng/mL
same,concentration at 1 h,[1]; 150 mg QD suspension,4590 ng/mL
same,concentration at 1.5 h,[1]; 150 mg QD suspension,4360 ng/mL
same,concentration at 2 h,[1]; 150 mg QD suspension,4100 ng/mL
same,concentration at 2.5 h,[1]; 150 mg QD suspension,3940 ng/mL
same,concentration at 3 h,[1]; 150 mg QD suspension,3660 ng/mL
same,concentration at 4 h,[1]; 150 mg QD suspension,3130 ng/mL
same,concentration at 6 h,[1]; 150 mg QD suspension,2270 ng/mL
same,concentration at 8 h,[1]; 150 mg QD suspension,1750 ng/mL
same,concentration at 10 h,[1]; 150 mg QD suspension,1360 ng/mL
same,concentration at 12 h,[1]; 150 mg QD suspension,1000 ng/mL
same,concentration at 24 h,[1]; 150 mg QD suspension,247 ng/mL
same,"Hartnup Amino Acids excretion over 24 hours, Mean","SLC6A19; 25 mg BID suspension, Day 1",2123.44
same,"Phenylalanine excretion over 24 hours, Mean","SLC6A19; 25 mg BID suspension, Day 1",37.38
same,"Hartnup Amino Acids excretion over 24 hours, Mean","SLC6A19; 25 mg BID suspension, Day 7",1835.21
same,"Phenylalanine excretion over 24 hours, Mean","SLC6A19; 25 mg BID suspension, Day 7",35.22
same,"Hartnup Amino Acids excretion over 24 hours, Mean","SLC6A19; 25 mg BID suspension, Day 14",1427.77
same,"Phenylalanine excretion over 24 hours, Mean","SLC6A19; 25 mg BID suspension, Day 14",19.65
same,increase of urinary excretion of Hartnup amino acids over 24 hours,SLC6A19; 75 mg BID suspension versus PBO (0.4 g),13 fold
same,"Hartnup Amino Acids excretion over 24 hours, Mean","SLC6A19; 75 mg BID suspension, Day 1",4472.55
same,"Phenylalanine excretion over 24 hours, Mean","SLC6A19; 75 mg BID suspension, Day 1",105.25
same,"Hartnup Amino Acids excretion over 24 hours, Mean","SLC6A19; 75 mg BID suspension, Day 7",4398.31
same,"Phenylalanine excretion over 24 hours, Mean","SLC6A19; 75 mg BID suspension, Day 7",70.98
same,"Hartnup Amino Acids excretion over 24 hours, Mean","SLC6A19; 75 mg BID suspension, Day 14",4922.75
same,"Phenylalanine excretion over 24 hours, Mean","SLC6A19; 75 mg BID suspension, Day 14",88.64
same,Urinary excretion of Hartnup amino acids over 24 hours,"SLC6A19; 75 mg BID suspension, healthy volunteers",4.9 g
same,"Hartnup Amino Acids excretion over 24 hours, Mean","SLC6A19; 150 mg QD suspension, Day 1",3861.43
same,"Phenylalanine excretion over 24 hours, Mean","SLC6A19; 150 mg QD suspension, Day 1",106.76
same,"Hartnup Amino Acids excretion over 24 hours, Mean","SLC6A19; 150 mg QD suspension, Day 7",6785.54
same,"Phenylalanine excretion over 24 hours, Mean","SLC6A19; 150 mg QD suspension, Day 7",166.71
same,"Hartnup Amino Acids excretion over 24 hours, Mean","SLC6A19; 150 mg QD suspension, Day 14",3737.47
same,"Phenylalanine excretion over 24 hours, Mean","SLC6A19; 150 mg QD suspension, Day 14",72.43
